For one compound, IC50 results are on record in BindingDB's records for patent US11130748 (Mission Therapeutics, 2021).

As usually defined, the IC50 is the concentration at which inhibition is half-maximal. A lower IC50 goes with inhibition by little substance.

Molecules are shown by their SMILES.

This experiment has as its target T1, Ubiquitin carboxyl-terminal hydrolase 30 (Homo sapiens, UniProt Q70CQ3).
T1 sequence (Q70CQ3 whole entry): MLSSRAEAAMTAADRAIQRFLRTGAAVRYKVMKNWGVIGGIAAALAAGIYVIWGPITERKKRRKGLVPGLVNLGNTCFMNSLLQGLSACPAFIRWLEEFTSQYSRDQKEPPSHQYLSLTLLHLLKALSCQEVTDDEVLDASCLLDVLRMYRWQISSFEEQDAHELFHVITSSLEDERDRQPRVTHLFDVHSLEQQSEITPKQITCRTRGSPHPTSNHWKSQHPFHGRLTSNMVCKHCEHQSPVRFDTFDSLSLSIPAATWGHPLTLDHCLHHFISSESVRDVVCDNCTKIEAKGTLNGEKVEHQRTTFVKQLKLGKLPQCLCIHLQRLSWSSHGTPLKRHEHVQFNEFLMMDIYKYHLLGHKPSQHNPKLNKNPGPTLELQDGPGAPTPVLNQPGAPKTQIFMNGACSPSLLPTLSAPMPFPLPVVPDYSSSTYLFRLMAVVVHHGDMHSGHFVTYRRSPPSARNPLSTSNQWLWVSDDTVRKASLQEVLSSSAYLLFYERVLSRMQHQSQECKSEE
The experiment in a line: Biochemical Assay. Here is the method:
Dilution plates were prepared at 21 times the final concentration (2100 μM for a final concentration of 100 μM) in 50% DMSO in a 96-well polypropylene V-bottom plate (Greiner #651201). A typical 8-point dilution series to be 100, 30, 10, 3, 1, 0.3, 0.1, 0.03 μM final. Reactions were performed in duplicate in black 384 well plates (small volume, Greiner 784076) in a final reaction volume of 21 μl. Either 1 μl of 50% DMSO or diluted compound was added to the plate. USP30 was diluted in reaction buffer (40 mM Tris, pH 7.5, 0.005% Tween 20, 0.5 mg/ml BSA, 5 mM beta-mercaptoethanol) to the equivalent of 0.05 μl/well and 10 μl of diluted USP30 was added to the compound. Enzyme and compound were incubated for 30 min at room temp. Reactions were initiated by the addition of 50 nM of TAMRA labelled peptide linked to ubiquitin via an iso-peptide bond as fluorescence polarisation substrate. Reactions were read immediately after addition of substrate and following a 2 hr incubation at room temperature. Readings were performed on a Pherastar Plus (BMG Labtech). λ Excitation 540 nm; λ Emission 590 nm.

With `N#CN1CC[C@H](CNC(=O)c2ncc(-c3ccccc3)s2)C1` [US11130748, Example 61], the IC50 entry was “in the range around 550 nM”.
